According to US20250129021A1, “SMALL MOLECULE PROTEIN SYNTHESIS MODULATORS” (Interdict Bio, Inc., priority 2023, published 2025):

Key:
Assay type in all cases: biochemical
MYC = experiment: In vitro transcription-translation (IVTT) assay, MYC reporter; settings: IVTT assay, HeLa S3 lysate, MYC reporter, normalized sfGFP/mCherry ratio; half-log dilutions 30 μM-0.1 μM, 2 hrs at 30° C.
Summary of the method: (§1)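 Reporter: mCherry, P2A, then 3×FLAG-target peptide-sfGFP fusion, IRES-initiated; HeLa S3 lysate IVTT; cpd dilutions 30 μM−0.1 μM half-log in 100% DMSO (dilution-plate conc); DNA added last; 2 h, 30° C; PBS quench.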

CCND1 = experiment: In vitro transcription-translation (IVTT) assay, CCND1 reporter; settings: IVTT assay, HeLa S3 lysate, sfGFP/mCherry ratio
Summary of the method: as §1

NFKB1 = experiment: In vitro transcription-translation (IVTT) assay, NFKB1 reporter; settings: HeLa S3 lysate, sfGFP/mCherry ratio
Procedure: In vitro transcription-translation assay setup: Each assay includes a master mix containing lysate and shared components, a 96-well plate containing compound titrations for testing, a 96-well DNA plate with reporter constructs to be tested, 96-well skirted PCR plates, and 96-well flat-bottom, black, fluorescent assay plates. Reaction materials setup: (A) Master mix—15 mL conical tube (3 mL of HeLa S3 Lysate described above; 0.6 mL of ThermoFisher Accessory Proteins (#88882); 1.2 ml of ThermoFisher Reaction Mix (#88882); 0.54 mL of nuclease-free Water); (B) 96-Well Master Mix+Compound Plate (Half-log dilutions (30 μM−0.1 μM) of 4 compounds of interest are prepared in 100% DMSO); 96-Well DNA Plate (Five DNA constructs are plated into single columns within the plate. Row 1 of the column contains nuclease free H2O, all other wells contain 110 ng/μL plasmid DNA). Reactions are started by mixing 155 μL of master mix and 3.5 μL of compound serial dilutions, then 9.1 μL of master mix+compound mixture is aliquoted across 5 96-well plates. Reactions begin with final addition of 2 μL of DNA for a 11.1 μL reaction volume in each well. The entire plate is sealed, and incubated for 2 hrs at 30° C. After 2 hrs, quench the assay using 45 μL of PBS, and transfer 50 μL to a flat-bottom black microplate Quantify the sfGFP and mCherry signals from each well on each plate, taking 3 reads of each plate, and perform data analysis below.
In vitro transcription-translation assay data analysis: Each plate is read three times in channels for both sfGFP and mCherry signals. The average signal across these 3 reads is then calculated for further analysis. Control wells containing no DNA reporter are subtracted from reporter wells in the same column to remove auto-fluorescence of the lysate. Then, the ratio of sfGFP/mCherry is calculated per well, and these ratios are averaged across the triplicate experiments on the same plate. Finally, the ratio of each titration concentration is normalized to the no drug control to create the normalized stalling metric. The error on this measurement is determined by propagating error through the averaging and normalization steps. Values are plotted and fit for IC50 determination for each test sequence and titration of compound.

Compound	IC50 (CCND1) [µM]	IC50 (NFKB1) [µM]	IC50 (MYC) [µM]
O=C(NCc1cccc(OC(F)(F)F)c1)O[C@@H]1[C@@H](O)CN[C@@H]1Cc1ccc(-c2cnco2)cc1 [V192276, (2R,3S,4S)-4-hydroxy-2-{[4-(1,3-oxazol-5-yl)phenyl]methyl}pyrrolidin-3-yl N-{[3-(trifluoromethoxy)phenyl]methyl}carbamate]	< 10	< 10	< 10
(3S,4S,5R)-4-({[(3-fluorophenyl)methyl]carbamoyl}oxy)-5-{[4-(1,3-oxazol-5-yl)phenyl]methyl}pyrrolidin-3-yl acetate [V192392]	< 10	< 10	< 10
O=C(NCc1cccc(F)c1)O[C@@H]1[C@@H](O)CN[C@@H]1Cc1ccc(-c2cnc(C(F)F)s2)cc1 [V192310, (2R,3S,4S)-2-({4-[2-(difluoromethyl)-1,3-thiazol-5-yl]phenyl}methyl)-4-hydroxypyrrolidin-3-yl N-[(3-fluorophenyl)methyl]carbamate]	10 to 20	< 10	< 10
O=C(NCc1cccc(F)c1)O[C@@H]1[C@@H](O)CN[C@@H]1Cc1ccc(C(F)F)cc1 [V192274, (2R,3S,4S)-2-{[4-(difluoromethyl)phenyl]methyl}-4-hydroxypyrrolidin-3-yl N-[(3-fluorophenyl)methyl]carbamate]	< 10	< 10	< 10
O=C(NCC[C@@H]1CCCN1)O[C@@H]1[C@@H](O)CN[C@@H]1Cc1ccc(-c2cnns2)cc1 [V192320, (2R,3S,4S)-4-hydroxy-2-{[4-(1,2,3-thiadiazol-5-yl)phenyl]methyl}pyrrolidin-3-yl N-{2-[(2S)-pyrrolidin-2-yl]ethyl}carbamate]	< 10	< 10	< 10
O=C(NCc1cccc(F)c1)O[C@@H]1[C@@H](O)CN[C@@H]1Cc1ccc(-c2cnns2)cc1 [V192319, (2R,3S,4S)-4-hydroxy-2-{[4-(1,2,3-thiadiazol-5-yl)phenyl]methyl}pyrrolidin-3-yl N-[(3-fluorophenyl)methyl]carbamate]	< 10	< 10	< 10
O=C(NCc1cccc(F)c1)O[C@@H]1[C@@H](O)CN[C@@H]1Cc1ccc(OCF)cc1 [V190507, (2R,3S,4S)-2-(4-(fluoromethoxy)benzyl)-4-hydroxypyrrolidin-3-yl (3-fluorobenzyl)carbamate]	< 10	< 10	< 10
O=C(NCC[C@@H]1CCNCC1(F)F)O[C@@H]1[C@@H](O)CN[C@@H]1Cc1ccc(-c2cnco2)cc1 [V192234, (2R,3S,4S)-4-hydroxy-2-{[4-(1,3-oxazol-5-yl)phenyl]methyl}pyrrolidin-3-yl N-{2-[(4S)-3,3-difluoropiperidin-4-yl]ethyl}carbamate]	< 10	< 10	< 10
O=C(NCCC1CCNCC1)O[C@@H]1[C@@H](O)CN[C@@H]1Cc1ccc(-c2ccc(Cl)s2)cc1 [V192261, (2R,3S,4S)-2-{[4-(5-chlorothiophen-2-yl)phenyl]methyl}-4-hydroxypyrrolidin-3-yl N-[2-(piperidin-4-yl)ethyl]carbamate]	< 10	< 10	< 10
O=C(NCc1cncc(N2CCC2)c1)O[C@@H]1[C@@H](O)CN[C@@H]1Cc1ccc(-c2cnco2)cc1 [V192286, (2R,3S,4S)-4-hydroxy-2-{[4-(1,3-oxazol-5-yl)phenyl]methyl}pyrrolidin-3-yl N-{[5-(azetidin-1-yl)pyridin-3-yl]methyl}carbamate]	< 10	< 10	< 10
O=C(NCc1cccc(F)c1)O[C@@H]1[C@@H](O)CN[C@@H]1Cc1ccc(Oc2cncs2)cc1 [V192395, (2R,3S,4S)-4-hydroxy-2-{[4-(1,3-thiazol-5-yloxy)phenyl]methyl}pyrrolidin-3-yl N-[(3-fluorophenyl)methyl]carbamate]	< 10	< 10	< 10
(2R,3S,4S)-2-{[2-fluoro-4-(1,3-oxazol-5-yl)phenyl]methyl}-4-hydroxypyrrolidin-3-ylN-[(3-fluorophenyl)methyl]carbamate [V192861]	< 10	< 10	< 10

More lines, main results first:

IC50 (CCND1) [µM]	IC50 (NFKB1) [µM]	Compound	IC50 (MYC) [µM]
< 10	< 10	O=C(NCCC12CC(CN1)C2)O[C@@H]1[C@@H](O)CN[C@@H]1Cc1ccc(-c2cnco2)cc1 [V192847, (2R,3S,4S)-4-hydroxy-2-{[4-(1,3-oxazol-5-yl)phenyl]methyl}pyrrolidin-3-yl N-(2-{2-azabicyclo[2.1.1]hexan-1-yl}ethyl)carbamate]	< 10
< 10	< 10	O=C(NCCc1cc(F)c(O)c(F)c1)O[C@@H]1[C@@H](O)CN[C@@H]1Cc1ccc(-c2cnco2)cc1 [V192432, (2R,3S,4S)-4-hydroxy-2-{[4-(1,3-oxazol-5-yl)phenyl]methyl}pyrrolidin-3-yl N-[2-(3,5-difluoro-4-hydroxyphenyl)ethyl]carbamate]	< 10
10 to 20	< 10	O=C(NCC[C@H]1CCNC[C@H]1F)O[C@@H]1[C@@H](O)CN[C@@H]1Cc1ccc(-c2cnco2)cc1 [V192897, (2R,3S,4S)-4-hydroxy-2-{[4-(1,3-oxazol-5-yl)phenyl]methyl}pyrrolidin-3-yl N-{2-[(3S,4R)-3-fluoropiperidin-4-yl]ethyl}carbamate]	< 10
< 10	< 10	O=C(NCc1cccc(F)c1)O[C@@H]1[C@@H](O)CN[C@@H]1Cc1ccc(-c2nncs2)cc1 [V192411, (2R,3S,4S)-4-hydroxy-2-{[4-(1,3,4-thiadiazol-2-yl)phenyl]methyl}pyrrolidin-3-yl N-[(3-fluorophenyl)methyl]carbamate]	< 10
< 10	< 10	O=C(NCc1cccc(F)c1)O[C@@H]1[C@@H](O)CN[C@@H]1Cc1ccc(Oc2cccnc2)cc1 [V192398, (2R,3S,4S)-4-hydroxy-2-{[4-(pyridin-3-yloxy)phenyl]methyl}pyrrolidin-3-yl N-[(3-fluorophenyl)methyl]carbamate]	< 10
< 10	< 10	O=C(NCC[C@@H]1C[C@H](C(F)(F)F)CN1)O[C@@H]1[C@@H](O)CN[C@@H]1Cc1ccc(-c2cnco2)cc1 [V192912, (2R,3S,4S)-4-hydroxy-2-{[4-(1,3-oxazol-5-yl)phenyl]methyl}pyrrolidin-3-yl N-{2-[(2S,4S)-4-(trifluoromethyl)pyrrolidin-2-yl]ethyl}carbamate]	< 10
< 10	< 10	O=C(NCc1cccc(F)c1)O[C@@H]1[C@@H](O)CN[C@@H]1Cc1ccc(-c2cnc(N3CC(F)(F)C3)s2)cc1 [V192410, (2R,3S,4S)-2-({4-[2-(3,3-difluoroazetidin-1-yl)-1,3-thiazol-5-yl]phenyl}methyl)-4-hydroxypyrrolidin-3-yl N-[(3-fluorophenyl)methyl]carbamate]	< 10
< 10	< 10	O=C(NCc1cccc(F)c1)O[C@@H]1[C@@H](O)CN[C@@H]1Cc1ccc(-c2cn3cc(C(F)(F)F)nc3s2)cc1 [V192874, (2R,3S,4S)-4-hydroxy-2-({4-[6-(trifluoromethyl)imidazo[2,1-b][1,3]thiazol-2-yl]phenyl}methyl)pyrrolidin-3-yl N-[(3-fluorophenyl)methyl]carbamate]	< 10
< 10	< 10	O=C(NCc1cc(F)c(O)c(F)c1)O[C@@H]1[C@@H](O)CN[C@@H]1Cc1ccc(-c2cnco2)cc1 [V192433, (2R,3S,4S)-4-hydroxy-2-{[4-(1,3-oxazol-5-yl)phenyl]methyl}pyrrolidin-3-yl N-[(3,5-difluoro-4-hydroxyphenyl)methyl]carbamate]	< 10
< 10	< 10	O=C(NCCSC(F)(F)F)O[C@@H]1[C@@H](O)CN[C@@H]1Cc1ccc(-c2cnco2)cc1 [V192442, (2R,3S,4S)-4-hydroxy-2-{[4-(1,3-oxazol-5-yl)phenyl]methyl}pyrrolidin-3-yl N-{2-[(trifluoromethyl)sulfanyl]ethyl}carbamate]	< 10
